From patent publication US6936457B1 (Merck & Co., Inc., priority 1990, dated 2005)
“And” between values parts separate entries of the source, which are not always exact repeats. Equal values may be shown once. Read-outs that look alike come from different tables or passages of the source.

Experiments:
IMR32 = assay: 86Rb ion-flux assay, IMR32 positive control cells; type: cell-based, human
PC12 = assay: 86Rb ion-flux assay, PC12 positive control cells; type: cell-based
[1] = molecular target: T1, human neuronal nicotinic AChR α3 and β4 subunits (Homo sapiens, UniProt P30926+P32297); assay: Two-electrode voltage clamp of Xenopus oocytes injected with α3 and β4 transcripts; type: cell-based
T1 construct: expressed in transfected cells; host or cells: Xenopus oocytes injected with in vitro transcripts

[2] = molecular target: T2, human neuronal nicotinic AChR β4 subunit (Homo sapiens, UniProt P30926); assay: Two-electrode voltage clamp of Xenopus oocytes injected with β4 transcript alone; type: cell-based
T2 construct: expressed in transfected cells; host or cells: Xenopus oocytes injected with in vitro transcript (KEβ4.6/pGEM or pCMV-KEβ4)
T2 sequence (P30926 22-498): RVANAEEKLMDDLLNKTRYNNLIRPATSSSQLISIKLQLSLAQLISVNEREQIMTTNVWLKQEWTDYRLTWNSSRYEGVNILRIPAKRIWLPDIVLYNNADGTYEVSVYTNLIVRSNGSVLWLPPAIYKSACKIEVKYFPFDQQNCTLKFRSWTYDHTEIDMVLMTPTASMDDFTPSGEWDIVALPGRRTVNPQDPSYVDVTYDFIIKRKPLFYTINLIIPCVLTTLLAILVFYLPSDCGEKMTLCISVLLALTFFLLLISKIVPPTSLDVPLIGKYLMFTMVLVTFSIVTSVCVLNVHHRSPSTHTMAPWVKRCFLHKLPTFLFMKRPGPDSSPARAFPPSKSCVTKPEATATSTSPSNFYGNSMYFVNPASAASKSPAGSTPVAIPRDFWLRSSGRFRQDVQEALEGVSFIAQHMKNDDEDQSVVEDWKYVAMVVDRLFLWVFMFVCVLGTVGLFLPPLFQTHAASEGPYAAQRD

[3] = molecular target: T3, human neuronal nicotinic AChR α3 subunit (Homo sapiens, UniProt P32297); assay: Two-electrode voltage clamp of Xenopus oocytes injected with α3 transcript alone; type: cell-based
T3 construct: expressed in transfected cells; host or cells: Xenopus oocytes injected with in vitro transcript

[4] = molecular target: human neuronal nicotinic AChR α3 and β2 subunits (Homo sapiens, UniProt P17787+P32297); type: cell-based
human neuronal nicotinic AChR α3 and β2 subunits, sequence (P17787 26-502, one chain of several): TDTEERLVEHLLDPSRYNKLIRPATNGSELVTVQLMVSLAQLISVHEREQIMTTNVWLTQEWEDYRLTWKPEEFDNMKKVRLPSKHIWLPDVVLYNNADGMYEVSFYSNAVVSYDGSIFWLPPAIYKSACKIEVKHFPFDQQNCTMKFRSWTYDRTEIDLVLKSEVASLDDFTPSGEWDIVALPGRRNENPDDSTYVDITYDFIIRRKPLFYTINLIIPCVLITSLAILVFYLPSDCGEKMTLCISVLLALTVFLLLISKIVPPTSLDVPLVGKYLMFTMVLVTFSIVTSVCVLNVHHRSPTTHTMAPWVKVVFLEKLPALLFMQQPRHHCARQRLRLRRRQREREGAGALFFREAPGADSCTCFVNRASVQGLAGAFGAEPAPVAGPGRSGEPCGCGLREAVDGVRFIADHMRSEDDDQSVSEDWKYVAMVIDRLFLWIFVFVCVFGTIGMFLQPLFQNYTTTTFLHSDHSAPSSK

human α3β2α5 nAChR = human α3β2α5 nAChR (Homo sapiens, UniProt P17787+P30532+P32297, D398N); type: cell-based
human α3β2α5 nAChR, sequence (P32297 32-505): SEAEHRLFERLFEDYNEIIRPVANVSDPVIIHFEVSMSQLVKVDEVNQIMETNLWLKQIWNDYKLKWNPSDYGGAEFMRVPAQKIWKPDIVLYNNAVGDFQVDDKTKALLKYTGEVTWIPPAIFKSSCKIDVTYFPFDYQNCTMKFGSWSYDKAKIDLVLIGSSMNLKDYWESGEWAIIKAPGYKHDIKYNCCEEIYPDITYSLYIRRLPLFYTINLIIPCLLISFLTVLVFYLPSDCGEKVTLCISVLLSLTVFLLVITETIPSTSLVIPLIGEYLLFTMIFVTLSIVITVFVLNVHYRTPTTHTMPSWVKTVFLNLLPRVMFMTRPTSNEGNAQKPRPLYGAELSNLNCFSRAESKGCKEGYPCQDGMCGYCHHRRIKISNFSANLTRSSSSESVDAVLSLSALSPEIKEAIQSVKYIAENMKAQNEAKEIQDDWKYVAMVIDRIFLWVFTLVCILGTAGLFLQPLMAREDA
human α3β2α5 nAChR, sequence (P17787 26-502): as the sequence (P17787 26-502, one chain of several) above

[5] = molecular target: T1, human neuronal nicotinic AChR α3 and β4 subunits; type: cell-based
[6] = molecular target: human neuronal nicotinic AChR α7 subunit (Homo sapiens, UniProt P36544); type: cell-based
human neuronal nicotinic AChR α7 subunit, sequence (P36544 23-502): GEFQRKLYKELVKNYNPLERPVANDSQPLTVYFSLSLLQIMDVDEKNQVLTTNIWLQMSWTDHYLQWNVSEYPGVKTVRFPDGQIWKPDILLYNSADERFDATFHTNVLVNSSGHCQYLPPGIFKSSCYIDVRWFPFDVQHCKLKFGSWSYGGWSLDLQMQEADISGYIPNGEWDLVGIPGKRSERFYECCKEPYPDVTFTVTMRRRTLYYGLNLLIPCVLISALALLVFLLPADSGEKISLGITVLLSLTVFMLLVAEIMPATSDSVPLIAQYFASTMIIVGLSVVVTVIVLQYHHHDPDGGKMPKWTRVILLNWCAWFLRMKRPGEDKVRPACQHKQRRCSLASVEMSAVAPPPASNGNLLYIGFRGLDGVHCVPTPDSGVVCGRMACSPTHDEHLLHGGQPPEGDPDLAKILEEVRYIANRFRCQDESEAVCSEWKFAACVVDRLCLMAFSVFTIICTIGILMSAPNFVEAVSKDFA

human α7 nAChR [7] = molecular target: T4, human α7 nAChR (Homo sapiens, UniProt P36544); type: cell-based
T4 sequence (P36544 23-502): as above

human α7 nAChR [8] = molecular target: T4, human α7 nAChR; type: binding
[9] = Rattus norvegicus, PC-12, PC12, agonists and antagonists, read-out: EC50
[10] = Homo sapiens, IMR-32, IMR32, agonists and antagonists, read-out: EC50

Compound: C[N+](C)(C)CCCCCC[N+](C)(C)C [hexamethonium]
- EC50 (IMR32; Homo sapiens, IMR-32): 22 µM

Compound: CN1[C@@H]2CC[C@H]1C[C@@H](OC(=O)C(CO)c1ccccc1)C2 (stereo partly shown) [atropine]
- EC50 (IMR32; Homo sapiens, IMR-32): 43 µM

Compound: CNC1(C)C2CCC(C2)C1(C)C (stereo not shown) [mecamylamine]
- EC50 (PC12; [9]): 0.42 µM
- EC50 (IMR32; [10]): 0.11 µM
- block of the responses to ACh, nicotine and cytisine [1]: at least partially blocked

Compound: O=c1cccc2n1C[C@@H]1CNC[C@H]2C1 [cytisine]
- response of oocytes to application of agonist [2]: did not respond
- Maximum response (PC12): 3.6 X^d
- EC50 (PC12; Rattus norvegicus, PC-12): 57 µM
- Maximum response (IMR32): 10 X^e
- EC50 (IMR32; Homo sapiens, IMR-32): 14 µM
- response of oocytes to application of agonist [3]: did not respond
- Number of oocytes responding [1]: 3 of 4 and 5 of 5 and 6 of 6
- inward currents in response to agonist [1]: detectable inward currents
- relative potency of the agonists [1]: cytisine>ACh>nicotine

Compound: COc1cc2c3cc1Oc1cc(ccc1O)C[C@@H]1c4c(cc(OC)c(O)c4Oc4ccc(cc4)C[C@@H]3N(C)CC2)CC[N+]1(C)C [d-tubocurarine]
- block of the current response to ACh [4]: blocked
- EC50 (PC12; read-out: EC50): 0.81 µM
- EC50 (IMR32; read-out: EC50): 2.5 µM
- nicotine-stimulated increase in fluorescence in presence of antagonist (human α3β2α5 nAChR): not observed
- nicotine-stimulated increase in fluorescence in presence of antagonist [5]: not observed
- block of the response to ACh [6]: blocked
- block of the responses to ACh and nicotine [1]: reproducibly blocked
- blockage of the response to ACh [1]: complete blockage
- reversibility of the inhibition [1]: appeared to be reversible

Compound: C[N+](C)(C)CCOC(N)=O.[Cl-] [CCh, carbamylcholine]
- Maximum response (PC12): 3.3 X^b
- EC50 (PC12; read-out: EC50): 35 µM
- Maximum response (IMR32): 7.6 X^c
- EC50 (IMR32; read-out: EC50): 230 µM

Compound: Clc1ccc(C2CC3CCC2N3)cn1 (stereo not shown) [epibatidine]
- response of individual cells (human α7 nAChR [7]): homogenous manner

Compound: CN1CCCC1c1cccnc1 (stereo not shown) [nicotine]
- Number of oocytes responding [2]: 0 of 9
- response of oocytes to application of agonist [2]: did not respond
- Number of oocytes responding [4]: 2 of 9 and 0 of 9
- Maximum response (PC12; PC12, at 200 μM nicotine, 300 μM CCh, 1 mM cytisine (footnotes)): 2.1 X^a
- EC50 (PC12; [9]): 52 µM
- EC50 (IMR32; [10]): 18 µM
- Maximum response (IMR32; IMR32, at 200 μM nicotine, 3 mM CCh, 100 μM cytisine (footnotes)): 7.7 X^a
- fluorescence (intracellular calcium) after addition of agonist (human α3β2α5 nAChR): increased dramatically
- Number of oocytes responding [3]: 0 of 8
- response of oocytes to application of agonist [3]: did not respond
- fluorescence (intracellular calcium) after addition of agonist [5]: increased dramatically
- Number of oocytes responding [1]: 4 of 5 and 3 of 4 and 5 of 5 and 6 of 6
- inward currents in response to agonist [1]: detectable inward currents

Compound: α-bungarotoxin
- [3H]-MLA binding displaced (human α7 nAChR [8]): approximately 65%
- IC50 (human α7 nAChR [8]; read-out: IC50, displacement of [3H]-MLA binding): 0.003 µM
